Earlier results in patent US20120183610A1, “GLUCOCORTICOID THERAPY” (priority 2009, published 2012).

What was measured:
[1] = dose equivalent to 20 mg hydrocortisone
[2] = 30 to 15 mg daily; after 3 months
[3] = after 2.3 to 6.8 months; mean dose reduced to 20.8±1.0 mg; p<0.01

CC(=O)OCC(=O)[C@@]1(O)CC[C@H]2[C@@H]3CCC4=CC(=O)CC[C@]4(C)[C@H]3C(=O)C[C@@]21C [Cortisone acetate]
Equivalent amount [1]: 25 mg

C[C@]12CCC(=O)C=C1CC[C@@H]1[C@@H]2[C@@H](O)C[C@@]2(C)[C@H]1CC[C@]2(O)C(=O)CO [Hydrocortisone]
body weight and cardiovascular functional variables after dose reduction [2]: no change in body weight or any of the cardiovascular functional variables studied | Equivalent amount [1]: 20 mg | serum concentration of osteocalcin at re-evaluation [3]: 19.9 ng/mL | BMI before dose reduction (11 patients with secondary adrenal insufficiency): 31.5±1.1 kg/m^2 | fasting glucose and insulin levels after dose reduction (dose reduced on average by 50%): unaffected | body weight reduction, on average (dose reduced on average by 50%, 11 patients, follow-up 6-12 months): 7.1 kg | BMI after dose reduction (dose reduced on average by 50%, follow-up 6-12 months): 29.4±1.0 kg/m^2

C[C@@H]1C[C@H]2[C@@H]3C[C@H](F)C4=CC(=O)C=C[C@]4(C)[C@H]3[C@@H](O)C[C@]2(C)[C@@]1(O)C(=O)CO [Paramethasone]
Equivalent amount [1]: 2 mg

C[C@]12C=CC(=O)C=C1CC[C@@H]1[C@@H]2[C@@H](O)C[C@@]2(C)[C@H]1CC[C@]2(O)C(=O)CO [Prednisolone]
Equivalent amount [1]: 5 mg

C[C@]12C=CC(=O)C=C1CC[C@H]1[C@@H]3C[C@@H](O)[C@](O)(C(=O)CO)[C@@]3(C)C[C@H](O)[C@@]12F [Triamcinolone]
Equivalent amount [1]: 4 mg
